Measured values published in ChEMBL document CHEMBL6134888, “Challenging the "Undruggable"─Targeting STAT3 but Identifying Potent TrkA-Targeted Inhibitors” (J Med Chem, 2025).

How the values were obtained:
[1] = Metabolic stability in human liver microsome assessed as intrinsic clearance measured up to 60 mins by HPLC-MS/MS analysis; assay type: ADME; settings: liver microsomes, read-out: CLH
[2] = Apparent permeability of compound across apical to basolateral side in human Caco-2 cells; assay type: ADME, cell-based
[3] = Plasma protein binding in human; assay type: ADME, cell-free; settings: read-out: PPB (converted)
[4] = Metabolic stability in human liver microsome assessed as half life measured up to 60 mins by HPLC-MS/MS analysis; assay type: ADME; settings: liver microsomes
[5] = biological target: T1, Tyrosine-protein kinase JAK2 (Homo sapiens, UniProt O60674); experiment: Inhibition of JAK2 (unknown origin) by Z-LYTE Kinase assay
T1 sequence (O60674 whole entry): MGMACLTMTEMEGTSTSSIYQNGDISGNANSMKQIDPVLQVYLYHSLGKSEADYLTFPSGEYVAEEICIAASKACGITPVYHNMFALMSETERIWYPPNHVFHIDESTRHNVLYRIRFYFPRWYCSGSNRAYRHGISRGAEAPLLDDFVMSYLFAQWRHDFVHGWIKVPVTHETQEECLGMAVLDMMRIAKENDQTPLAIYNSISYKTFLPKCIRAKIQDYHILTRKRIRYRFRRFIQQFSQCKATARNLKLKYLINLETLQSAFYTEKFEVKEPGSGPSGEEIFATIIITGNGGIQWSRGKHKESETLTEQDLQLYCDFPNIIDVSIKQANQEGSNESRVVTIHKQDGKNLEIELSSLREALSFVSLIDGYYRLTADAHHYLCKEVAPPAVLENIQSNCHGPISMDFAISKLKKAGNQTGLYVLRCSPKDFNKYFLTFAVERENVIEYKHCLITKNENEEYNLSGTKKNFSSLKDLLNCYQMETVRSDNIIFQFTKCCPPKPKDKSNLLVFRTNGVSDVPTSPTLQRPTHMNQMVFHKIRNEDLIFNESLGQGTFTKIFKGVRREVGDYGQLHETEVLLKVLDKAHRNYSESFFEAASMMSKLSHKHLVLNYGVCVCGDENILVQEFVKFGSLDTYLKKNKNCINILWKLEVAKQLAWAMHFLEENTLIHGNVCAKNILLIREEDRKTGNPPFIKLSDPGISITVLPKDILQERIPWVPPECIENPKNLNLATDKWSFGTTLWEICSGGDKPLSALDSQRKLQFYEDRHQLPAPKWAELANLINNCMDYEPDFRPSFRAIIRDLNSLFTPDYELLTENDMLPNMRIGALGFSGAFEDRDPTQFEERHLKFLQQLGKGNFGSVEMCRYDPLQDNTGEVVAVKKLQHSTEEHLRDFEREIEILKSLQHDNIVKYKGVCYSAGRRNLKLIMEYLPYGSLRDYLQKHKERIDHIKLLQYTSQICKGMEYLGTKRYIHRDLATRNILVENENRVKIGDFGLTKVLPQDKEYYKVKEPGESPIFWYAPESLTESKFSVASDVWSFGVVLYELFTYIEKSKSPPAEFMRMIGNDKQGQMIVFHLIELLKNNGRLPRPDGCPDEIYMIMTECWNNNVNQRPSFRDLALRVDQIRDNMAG

[6] = biological target: T2, Proto-oncogene tyrosine-protein kinase Src (Homo sapiens, UniProt P12931); experiment: Inhibition of SRC (unknown origin) by Z-LYTE Kinase assay
T2 sequence (P12931 2-536 limits assumed): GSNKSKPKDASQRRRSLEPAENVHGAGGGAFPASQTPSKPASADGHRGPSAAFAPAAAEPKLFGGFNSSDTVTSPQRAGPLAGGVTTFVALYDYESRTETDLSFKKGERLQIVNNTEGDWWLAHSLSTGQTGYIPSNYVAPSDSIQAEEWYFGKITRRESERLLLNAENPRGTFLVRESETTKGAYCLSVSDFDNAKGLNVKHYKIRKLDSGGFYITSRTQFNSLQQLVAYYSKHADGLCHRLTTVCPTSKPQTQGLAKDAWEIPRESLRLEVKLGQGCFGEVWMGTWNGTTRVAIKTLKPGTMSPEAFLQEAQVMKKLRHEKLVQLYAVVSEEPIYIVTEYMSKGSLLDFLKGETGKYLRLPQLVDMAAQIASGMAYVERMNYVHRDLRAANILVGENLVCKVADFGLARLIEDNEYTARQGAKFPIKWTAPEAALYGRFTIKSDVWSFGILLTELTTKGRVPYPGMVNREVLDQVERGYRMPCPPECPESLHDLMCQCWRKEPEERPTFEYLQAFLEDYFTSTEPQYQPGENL

[7] = biological target: BDNF/NT-3 growth factors receptor (Homo sapiens, UniProt Q16620); experiment: Binding affinity to TRKB (unknown origin) assessed as dissociation constant by KINOMEscan assay
Chain of BDNF/NT-3 growth factors receptor (Q16620 whole entry): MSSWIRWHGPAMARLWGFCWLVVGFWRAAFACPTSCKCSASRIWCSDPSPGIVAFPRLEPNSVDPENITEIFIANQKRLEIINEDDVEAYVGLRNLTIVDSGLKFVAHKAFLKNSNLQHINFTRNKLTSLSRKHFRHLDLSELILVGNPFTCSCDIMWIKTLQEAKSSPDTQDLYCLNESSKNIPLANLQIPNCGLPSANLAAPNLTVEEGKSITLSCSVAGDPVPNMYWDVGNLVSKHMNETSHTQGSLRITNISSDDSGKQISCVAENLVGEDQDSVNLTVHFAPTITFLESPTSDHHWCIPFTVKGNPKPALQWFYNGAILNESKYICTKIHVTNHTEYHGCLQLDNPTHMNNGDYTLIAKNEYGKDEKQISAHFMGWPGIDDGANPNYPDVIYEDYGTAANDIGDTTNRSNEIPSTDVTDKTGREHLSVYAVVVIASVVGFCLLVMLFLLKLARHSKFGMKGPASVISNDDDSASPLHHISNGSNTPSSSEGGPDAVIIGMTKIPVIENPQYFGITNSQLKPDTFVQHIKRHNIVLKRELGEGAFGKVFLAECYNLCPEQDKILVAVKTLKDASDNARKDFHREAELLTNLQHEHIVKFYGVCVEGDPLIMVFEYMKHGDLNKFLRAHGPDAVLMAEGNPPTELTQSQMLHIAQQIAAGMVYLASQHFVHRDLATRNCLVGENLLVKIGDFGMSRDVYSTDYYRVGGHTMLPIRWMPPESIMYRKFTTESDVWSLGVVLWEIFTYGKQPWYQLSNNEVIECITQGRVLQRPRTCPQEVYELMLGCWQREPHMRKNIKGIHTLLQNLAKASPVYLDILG

MDA-MB-231 [8] = experiment: Cytotoxicity against human MDA-MB-231 cells assessed as cell viability at 100 uM incubated for 72 hrs by resazurin based analysis relative to control; assay type: functional; settings: read-out: Activity
LS174T [9] = experiment: Cytotoxicity against human LS174T cells assessed as cell viability at 100 uM incubated for 72 hrs by resazurin based analysis relative to control; assay type: functional; settings: read-out: Activity
[10] = biological target: T3, High affinity nerve growth factor receptor (Homo sapiens, UniProt P04629); experiment: Binding affinity to TRKA (unknown origin) assessed as dissociation constant
T3 sequence (P04629 whole entry): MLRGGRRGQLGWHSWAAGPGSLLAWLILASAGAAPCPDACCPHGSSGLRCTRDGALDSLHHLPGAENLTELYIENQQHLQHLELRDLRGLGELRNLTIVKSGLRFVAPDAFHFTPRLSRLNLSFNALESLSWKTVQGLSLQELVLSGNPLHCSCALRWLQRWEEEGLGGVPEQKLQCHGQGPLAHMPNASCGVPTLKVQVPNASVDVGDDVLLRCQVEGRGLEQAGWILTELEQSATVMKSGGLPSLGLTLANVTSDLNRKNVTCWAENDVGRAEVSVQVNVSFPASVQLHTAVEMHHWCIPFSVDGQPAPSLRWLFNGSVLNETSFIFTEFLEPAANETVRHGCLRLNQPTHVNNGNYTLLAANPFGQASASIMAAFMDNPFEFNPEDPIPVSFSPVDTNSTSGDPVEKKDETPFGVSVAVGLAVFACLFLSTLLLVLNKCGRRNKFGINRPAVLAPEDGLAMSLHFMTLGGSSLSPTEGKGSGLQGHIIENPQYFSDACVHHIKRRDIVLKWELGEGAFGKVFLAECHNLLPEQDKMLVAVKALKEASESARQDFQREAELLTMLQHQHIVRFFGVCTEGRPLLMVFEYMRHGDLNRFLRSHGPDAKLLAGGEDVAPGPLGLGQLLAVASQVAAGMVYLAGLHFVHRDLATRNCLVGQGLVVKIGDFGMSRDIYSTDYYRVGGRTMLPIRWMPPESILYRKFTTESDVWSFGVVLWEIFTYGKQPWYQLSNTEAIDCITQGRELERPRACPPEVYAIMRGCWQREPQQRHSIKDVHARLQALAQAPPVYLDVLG

[11] = biological target: T4, Receptor-type tyrosine-protein kinase FLT3 (Homo sapiens, UniProt P36888); experiment: Inhibition of FLT3 (unknown origin)
T4 sequence (P36888 whole entry): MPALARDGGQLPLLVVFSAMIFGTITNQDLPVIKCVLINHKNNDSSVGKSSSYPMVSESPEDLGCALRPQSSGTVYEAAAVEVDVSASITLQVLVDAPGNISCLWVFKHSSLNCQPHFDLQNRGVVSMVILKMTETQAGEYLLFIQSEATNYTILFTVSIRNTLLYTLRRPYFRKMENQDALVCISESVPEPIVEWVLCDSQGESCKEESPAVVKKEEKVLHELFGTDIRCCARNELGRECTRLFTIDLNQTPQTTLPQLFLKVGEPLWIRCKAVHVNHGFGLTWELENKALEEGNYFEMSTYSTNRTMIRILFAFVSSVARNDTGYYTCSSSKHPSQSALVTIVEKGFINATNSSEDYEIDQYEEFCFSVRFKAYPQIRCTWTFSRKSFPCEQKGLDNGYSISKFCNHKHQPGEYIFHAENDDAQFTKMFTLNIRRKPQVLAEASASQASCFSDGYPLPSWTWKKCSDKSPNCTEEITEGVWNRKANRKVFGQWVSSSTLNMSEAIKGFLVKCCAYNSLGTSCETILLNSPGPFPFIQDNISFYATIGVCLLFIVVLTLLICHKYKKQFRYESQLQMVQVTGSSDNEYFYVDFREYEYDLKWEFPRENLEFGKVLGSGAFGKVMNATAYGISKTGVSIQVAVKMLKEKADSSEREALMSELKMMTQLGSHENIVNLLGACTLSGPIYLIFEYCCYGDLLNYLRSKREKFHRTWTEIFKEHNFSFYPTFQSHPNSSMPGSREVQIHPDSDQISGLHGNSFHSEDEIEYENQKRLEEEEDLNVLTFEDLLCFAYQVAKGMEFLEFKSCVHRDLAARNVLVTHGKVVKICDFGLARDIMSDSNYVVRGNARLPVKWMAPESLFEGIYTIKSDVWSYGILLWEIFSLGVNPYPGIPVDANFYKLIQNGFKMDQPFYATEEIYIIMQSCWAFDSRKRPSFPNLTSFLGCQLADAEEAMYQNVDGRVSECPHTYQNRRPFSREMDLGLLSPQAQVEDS

[12] = biological target: T2, Proto-oncogene tyrosine-protein kinase Src; experiment: Binding affinity to SRC (unknown origin) assessed as dissociation constant
MDA-MB-231 [13] = experiment: Cytotoxicity against human MDA-MB-231 cells assessed as effect on cell viability incubated for 72 hrs by resazurin based analysis; settings: MDA-MB-231, 72 h
[14] = biological target: T3, High affinity nerve growth factor receptor; experiment: Binding affinity to TRKA (unknown origin) assessed as dissociation constant by KINOMEscan assay
[15] = biological target: Tyrosine-protein kinase ABL1 (Homo sapiens, UniProt P00519); experiment: Binding affinity to ABL1 (unknown origin) assessed as dissociation constant
Chain of Tyrosine-protein kinase ABL1 (P00519 whole entry): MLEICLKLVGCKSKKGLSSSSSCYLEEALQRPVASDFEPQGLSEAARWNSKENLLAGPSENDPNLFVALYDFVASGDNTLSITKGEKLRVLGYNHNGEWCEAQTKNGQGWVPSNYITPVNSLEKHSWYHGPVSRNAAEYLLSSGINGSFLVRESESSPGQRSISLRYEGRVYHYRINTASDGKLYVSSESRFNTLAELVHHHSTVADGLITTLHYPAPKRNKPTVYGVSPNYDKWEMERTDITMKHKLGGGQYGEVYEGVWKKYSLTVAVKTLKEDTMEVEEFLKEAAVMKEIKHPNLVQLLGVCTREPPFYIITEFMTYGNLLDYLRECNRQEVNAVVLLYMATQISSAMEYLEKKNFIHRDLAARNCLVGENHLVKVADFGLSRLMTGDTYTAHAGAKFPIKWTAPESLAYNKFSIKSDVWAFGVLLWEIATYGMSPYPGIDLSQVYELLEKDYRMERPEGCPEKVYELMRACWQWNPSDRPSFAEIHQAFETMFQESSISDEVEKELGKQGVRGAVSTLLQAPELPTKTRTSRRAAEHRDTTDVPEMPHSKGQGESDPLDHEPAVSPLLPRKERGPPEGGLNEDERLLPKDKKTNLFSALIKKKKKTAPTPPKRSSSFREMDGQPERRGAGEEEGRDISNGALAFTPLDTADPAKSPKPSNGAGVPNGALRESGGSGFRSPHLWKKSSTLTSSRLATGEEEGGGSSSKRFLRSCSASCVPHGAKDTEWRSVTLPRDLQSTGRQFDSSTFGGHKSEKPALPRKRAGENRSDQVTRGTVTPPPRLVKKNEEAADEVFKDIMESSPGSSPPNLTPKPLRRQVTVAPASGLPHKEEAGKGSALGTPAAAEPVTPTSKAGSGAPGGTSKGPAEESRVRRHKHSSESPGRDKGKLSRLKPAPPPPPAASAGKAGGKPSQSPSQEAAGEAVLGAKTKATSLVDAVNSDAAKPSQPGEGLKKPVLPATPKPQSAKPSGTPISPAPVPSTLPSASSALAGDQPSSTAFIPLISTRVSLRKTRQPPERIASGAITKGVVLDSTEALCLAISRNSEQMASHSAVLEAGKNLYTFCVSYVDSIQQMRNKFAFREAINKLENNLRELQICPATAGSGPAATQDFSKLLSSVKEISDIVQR

[16] = biological target: T5, Serine/threonine-protein kinase Nek2 (Homo sapiens, UniProt P51955); experiment: Inhibition of NEK2 (unknown origin)
T5 sequence (P51955 whole entry): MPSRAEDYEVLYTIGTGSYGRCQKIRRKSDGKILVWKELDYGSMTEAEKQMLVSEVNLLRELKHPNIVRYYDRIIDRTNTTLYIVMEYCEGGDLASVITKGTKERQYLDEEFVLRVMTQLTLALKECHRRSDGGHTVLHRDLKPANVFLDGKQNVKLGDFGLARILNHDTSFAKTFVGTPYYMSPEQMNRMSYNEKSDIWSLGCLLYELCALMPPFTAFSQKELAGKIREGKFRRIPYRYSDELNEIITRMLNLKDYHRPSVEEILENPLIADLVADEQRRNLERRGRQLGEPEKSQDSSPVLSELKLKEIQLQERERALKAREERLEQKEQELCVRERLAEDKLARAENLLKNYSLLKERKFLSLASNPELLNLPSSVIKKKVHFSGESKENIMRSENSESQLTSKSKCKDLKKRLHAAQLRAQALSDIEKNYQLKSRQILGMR

LS174T [17] = experiment: Cytotoxicity against human LS174T cells assessed as effect on cell viability incubated for 72 hrs by resazurin based analysis
[18] = biological target: MAP kinase-activated protein kinase 2 (Homo sapiens, UniProt P49137); experiment: Inhibition of MK2 (unknown origin)
Chain of MAP kinase-activated protein kinase 2 (P49137 whole entry): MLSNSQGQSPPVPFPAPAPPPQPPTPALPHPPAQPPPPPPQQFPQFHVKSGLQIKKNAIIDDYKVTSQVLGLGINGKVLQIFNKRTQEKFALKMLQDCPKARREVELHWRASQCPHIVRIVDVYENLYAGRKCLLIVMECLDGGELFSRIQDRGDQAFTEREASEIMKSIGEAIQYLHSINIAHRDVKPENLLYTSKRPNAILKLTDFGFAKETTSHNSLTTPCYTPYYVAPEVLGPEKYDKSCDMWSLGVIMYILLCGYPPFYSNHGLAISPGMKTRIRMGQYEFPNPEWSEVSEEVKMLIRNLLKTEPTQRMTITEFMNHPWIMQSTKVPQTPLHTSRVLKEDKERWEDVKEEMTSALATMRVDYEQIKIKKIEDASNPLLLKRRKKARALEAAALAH

KM12 = experiment: cells; settings: Homo sapiens, KM12, 72 h
Description: Cytotoxicity against human KM12 cells assessed as inhibition of cell viability incubated for 72 hrs by resazurin based analysis

[19] = biological target: T1, Tyrosine-protein kinase JAK2; experiment: Binding affinity to JAK2 (unknown origin) assessed as dissociation constant

| SMILES | microsomal CLint [1] [µL/min/mg] | Papp A→B [2] [×10⁻⁶ cm/s] | fraction unbound [3] | half-life [4] [min] | IC50 [5] [nM] | IC50 [6] [µM] | Kd [7] [nM] | viability at 100 µM (MDA-MB-231 [8]) [%] | viability at 100 µM (LS174T [9]) [%] | Kd [10] [nM] | IC50 [11] [nM] | Kd [12] [nM] | IC50 (MDA-MB-231 [13]) [µM] | Kd [14] [nM] | Kd [15] [µM] | IC50 [16] [nM] | IC50 (LS174T [17]) [µM] | IC50 [18] [nM] | IC50 (KM12) [nM] | Kd [19] [nM] |
| --- | --- | --- | --- | --- | --- | --- | --- | --- | --- | --- | --- | --- | --- | --- | --- | --- | --- | --- | --- | --- |
| CC(=O)Nc1cccc(-c2cnc(N)c(N[C@H](C)c3ccccc3)n2)c1 | 66.2 | 8 | 0.043 | 105 | 177 |  |  |  |  |  |  |  |  |  |  |  |  |  |  |  |
| CC(Nc1nc(-c2cccnc2)cnc1N)c1ccccc1 (racemic) |  |  |  |  | 663 | 4.52 | 180 | 43 | 83 |  |  |  |  |  |  |  |  |  |  |  |
| CC(Nc1nc(-c2cccc(N(C)C)c2)cnc1N)c1ccccc1 (racemic) | 177 |  | 0.004 | 39.2 |  |  | 150 |  |  | 36 | 70 | 640 | > 10 | 52 | 5.3 | 870 | > 10 | 750 | < 300 | 1100 |
